Results on eight compounds are retold here after ChEMBL document CHEMBL1201862, “PubChem BioAssay data set” (2004).

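These data come from cells grown in 96-well plates and exposed to compound for 48 hours at five concentrations. GI50 marks 50% less growth.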 Active and inactive are the calls of the source. No stated cut-off is given here; in the data, active = GI50 up to about 1.1 µM and inactive = higher. Bounds are passed on as bounds.

Among the test systems are 786-0; ACHN; HT-29; IGROV-1; KM12; LOX IMVI; M14; Malme-3M; NCI-H226; OVCAR-3; OVCAR-4; RPMI-8226; RXF 393; SF-268; SF-295; SF-539; SNB-75; SNB-78; TK-10; T47D.
Holding throughout (assay): NCI-60 cell line screen, 48 h

Turning to `O=C(/C=C/c1ccc(Cl)c(Cl)c1)c1ccc2ccccc2c1`, the GI50 in the experiment with 786-0, with ACHN, in the experiment on HT-29, in the experiment on IGROV-1, with KM12 and in the experiment with LOX IMVI was > 100 µM (inactive) throughout. For the same compound, the GI50 in the experiment with M14 is > 100 µM (inactive); in the experiment on Malme-3M, > 100 µM (inactive); with NCI-H226, 70.5 µM (inactive); with OVCAR-3, > 100 µM (inactive); in the experiment with OVCAR-4 it was > 100 µM (inactive); in the experiment on RPMI-8226, > 100 µM (inactive). The GI50 in the experiment on RXF 393 is > 100 µM (inactive); in the experiment with SF-268, > 100 µM (inactive); in the experiment with SF-295, > 100 µM (inactive); in the experiment on SF-539, > 100 µM (inactive); in the experiment on SNB-75 it was 52 µM (inactive); with SNB-78, > 100 µM (inactive). Also, the GI50 in the experiment with TK-10 is > 100 µM (inactive).

For the compound `Cc1cc(C)c(-n2c(-c3ccccc3)cs/c2=N\N=C2C=C(C(C)(C)C)C(=O)C(C(C)(C)C)=C2)c(C)c1`, the GI50 is > 100 µM (inactive) in the experiment with 786-0; 90.2 µM (inactive) in the experiment with ACHN; > 100 µM (inactive) in the experiment on HT-29; > 100 µM (inactive) in the experiment with IGROV-1; > 100 µM (inactive) in the experiment with KM12; 83.8 µM (inactive) in the experiment with LOX IMVI. In addition, the GI50 in the experiment with M14, in the experiment on Malme-3M, in the experiment with NCI-H226, in the experiment with OVCAR-3, in the experiment on OVCAR-4 and in the experiment with RPMI-8226 was > 100 µM (inactive) throughout. The GI50 in the experiment on RXF 393 was > 100 µM (inactive); in the experiment on SF-268 it was > 100 µM (inactive); in the experiment with SF-295, > 100 µM (inactive); in the experiment with SF-539, > 100 µM (inactive); in the experiment with SNB-75 it was 21.3 µM (inactive); in the experiment with SNB-78, > 100 µM (inactive). Besides, in the experiment with TK-10, the GI50 is > 100 µM (inactive).

Consider `O=C(CC(=O)n1nc(-c2ccccc2)c(/N=N/c2ccc([N+](=O)[O-])cc2)c1-c1ccccc1)Nc1ccc(Cl)cc1`, for which the GI50 in the experiment with 786-0 was 34.8 µM (inactive); with ACHN it was 2.07 µM (inactive); in the experiment with HT-29, 12.5 µM (inactive); in the experiment with IGROV-1, 36.4 µM (inactive); in the experiment with KM12 it was 12 µM (inactive); with LOX IMVI, 30.2 µM (inactive). Also, the GI50 was 13.5 µM (inactive) with M14; 19 µM (inactive) in the experiment with Malme-3M; 22.4 µM (inactive) in the experiment on NCI-H226; 16 µM (inactive) in the experiment on OVCAR-3; 34.2 µM (inactive) in the experiment with OVCAR-4; 30.2 µM (inactive) in the experiment on RPMI-8226. The GI50 was 19.5 µM (inactive) in the experiment on RXF 393; 13.5 µM (inactive) in the experiment on SF-268; 40.6 µM (inactive) with SF-295; 21.5 µM (inactive) in the experiment with SF-539; 29 µM (inactive) with SNB-75; 88.5 µM (inactive) in the experiment with SNB-78. Moreover, in the experiment on TK-10, the GI50 is 22.6 µM (inactive).

With `CN(CCN1C(=O)c2cc([N+](=O)[O-])cc3cc([N+](=O)[O-])cc(c23)C1=O)CCN1C(=O)c2cc([N+](=O)[O-])cc3cc([N+](=O)[O-])cc(c23)C1=O`, the GI50 in the experiment with 786-0 was 0.455 µM (active); with ACHN, 0.264 µM (active); with HT-29, 0.272 µM (active); in the experiment with IGROV-1 it was 0.347 µM (active); in the experiment on KM12 it was 0.681 µM (active); in the experiment on LOX IMVI it was 0.248 µM (active). For the same compound, the GI50 with M14 is 0.652 µM (active); in the experiment on Malme-3M, 0.815 µM (active); in the experiment on NCI-H226 it was 0.778 µM (active); in the experiment on OVCAR-3, 0.646 µM (active); in the experiment on OVCAR-4 it was 0.524 µM (active); in the experiment with RPMI-8226, 0.342 µM (active). Also, the GI50 in the experiment with RXF 393 is 0.238 µM (active); in the experiment on SF-268, 0.458 µM (active); with SF-295, 0.59 µM (active); in the experiment with SF-539, 0.399 µM (active); in the experiment with SNB-75, 0.695 µM (active); in the experiment on SNB-78 it was 0.255 µM (active). The GI50 in the experiment with TK-10 was 8.73 µM (inactive).

With `C=C1C(=O)OC2C1C(OC(=O)/C(=C/C)COC(C)=O)CC1(CO1)C1C(OC(=O)/C(=C/C)CO)C=C(C)C21` (stereo not drawn), the GI50 in the experiment on 786-0 was 1.66 µM (inactive); in the experiment with ACHN it was 1.9 µM (inactive); in the experiment with HT-29, 1.64 µM (inactive); in the experiment on IGROV-1, 1.89 µM (inactive); with KM12, 3.94 µM (inactive); with LOX IMVI it was 3.19 µM (inactive). For the same compound, the GI50 with M14 was 1.67 µM (inactive); in the experiment on Malme-3M it was 1.78 µM (inactive); in the experiment with NCI-H226 it was 1.65 µM (inactive); in the experiment on OVCAR-3, 1.14 µM (inactive); with OVCAR-4, 2.86 µM (inactive); in the experiment on RPMI-8226, 0.655 µM (active). For the same compound, the GI50 was 0.394 µM (active) with RXF 393; 2.75 µM (inactive) in the experiment on SF-268; 5.16 µM (inactive) in the experiment with SF-295; 5.81 µM (inactive) in the experiment with SF-539; 2.26 µM (inactive) in the experiment on SNB-75; 1.65 µM (inactive) in the experiment on SNB-78. Also, the GI50 in the experiment with TK-10 was 2.3 µM (inactive).

Turning to `Cc1ccc(S(=O)(=O)c2ccc(C)cc2[N+](=O)[O-])cc1`, the GI50 in the experiment with 786-0 was > 100 µM (inactive); with ACHN it was > 100 µM (inactive); in the experiment with HT-29 it was > 100 µM (inactive); with IGROV-1 it was > 100 µM (inactive); with KM12, > 100 µM (inactive); in the experiment with LOX IMVI, 82.8 µM (inactive). Further, the GI50 was > 100 µM (inactive) in the experiment on M14; > 100 µM (inactive) in the experiment with Malme-3M; > 100 µM (inactive) with NCI-H226; 46.9 µM (inactive) with OVCAR-3; > 100 µM (inactive) with OVCAR-4; > 100 µM (inactive) with RPMI-8226. The GI50 is 82 µM (inactive) in the experiment with RXF 393; > 100 µM (inactive) with SF-268; 79.4 µM (inactive) with SF-295; > 100 µM (inactive) with SF-539; > 100 µM (inactive) in the experiment on SNB-75; 64.4 µM (inactive) in the experiment with SNB-78. The GI50 with TK-10 is > 100 µM (inactive).

For `C=C/C=C(\NC(=O)C(Cl)(Cl)Cl)[Si](C)(C)C`, the GI50 in the experiment with 786-0, in the experiment on ACHN, with HT-29, with IGROV-1, in the experiment with KM12 and with LOX IMVI was > 100 µM (inactive) each time. Besides, the GI50 in the experiment on M14, in the experiment with Malme-3M, in the experiment on NCI-H226, in the experiment with OVCAR-3, with OVCAR-4 and in the experiment on RPMI-8226 was > 100 µM (inactive) in each case. The GI50 in the experiment with RXF 393, in the experiment on SF-268, with SF-295, in the experiment on SF-539, in the experiment on SNB-75 and with SNB-78 was > 100 µM (inactive) throughout. The GI50 in the experiment on TK-10 is > 100 µM (inactive).

Consider `CC[C@@]1(O)C(=O)OCc2c1cc1n(c2=O)Cc2cc3ccccc3nc2-1` [CAMPTOTHECIN], for which the GI50 in the experiment on 786-0 is < 0.0214 µM (active); in the experiment on ACHN, < 0.0116 µM (active); in the experiment on HT-29, 0.0449 µM (active); in the experiment with IGROV-1, 0.184 µM (active); in the experiment on KM12 it was 0.159 µM (active); in the experiment with LOX IMVI, 0.0261 µM (active). Besides, the GI50 is < 0.0206 µM (active) in the experiment with M14; 0.174 µM (active) with Malme-3M; 0.0179 µM (active) in the experiment on NCI-H226; 0.177 µM (active) in the experiment on OVCAR-3; 0.209 µM (active) in the experiment on OVCAR-4; 0.0336 µM (active) in the experiment on RPMI-8226. Further, the GI50 in the experiment on RXF 393 was 0.0256 µM (active); in the experiment on SF-268 it was 0.0115 µM (active); in the experiment with SF-295 it was 0.0115 µM (active); in the experiment on SF-539, 0.0145 µM (active); in the experiment on SNB-75, 0.0272 µM (active); with SNB-78, 0.333 µM (active). Besides, the GI50 is 0.0225 µM (active) with T47D and 1.32 µM (inactive) in the experiment with TK-10.
